Assay results taken from patent US12370192B2, “Azole-fused pyridazin-3(2H)-one derivatives” (TAKEDA PHARMACEUTICAL COMPANY LIMITED, priority 2019, dated 2025).

Assays:
[1] = target: T1, human GPR139 receptor (Homo sapiens, UniProt Q6DWJ6); test: GPR139 Competition Binding (membrane-based, tritium-labeled ligand); settings: T-REx-CHO membranes with human GPR139; 6.5 nM tritium-labeled ligand; 11-point curve, 30 μM maximum concentration; read-out: GPR139 Binding Affinity (pKi) (converted)
T1 construct: expressed in transfected cells; host or cells: T-REx-CHO (Thermo Fisher Scientific), doxycycline-induced
T1 sequence (Q6DWJ6 1-353): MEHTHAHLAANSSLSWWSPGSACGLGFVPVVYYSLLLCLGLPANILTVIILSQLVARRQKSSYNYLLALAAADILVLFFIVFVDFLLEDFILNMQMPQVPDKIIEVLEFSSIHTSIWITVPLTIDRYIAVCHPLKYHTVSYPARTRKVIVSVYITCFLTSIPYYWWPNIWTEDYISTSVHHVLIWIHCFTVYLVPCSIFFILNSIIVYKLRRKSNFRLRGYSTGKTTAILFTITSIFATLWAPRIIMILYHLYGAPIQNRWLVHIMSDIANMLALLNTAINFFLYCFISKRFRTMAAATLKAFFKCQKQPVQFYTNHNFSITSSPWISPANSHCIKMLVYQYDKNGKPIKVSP
In short: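 Membranes came from doxycycline-induced T-REx-CHO cells expressing human GPR139. They were incubated 20 min at room temperature with 6.5 nM tritiated ligand and compound (11 points, top 30 μM) in HEPES pH 7.3 buffer with MgCl2/CaCl2. Filter-bound counts gave Ki by four-parameter fit, reported as pKi.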

[2] = target: T1, human GPR139 receptor; test: Measurement of GPR139 Activation Via Calcium Signaling (FLIPR, T-REx-CHO cells); type: cell-based; settings: T-REx-CHO cells stably expressing human GPR139, 11-point dose response, 10 μM maximum concentration, read-out: GPR139 Potency (pEC50) (converted)
In short: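 T-REx-CHO cells stably carrying human GPR139 under tetracycline control, induced with 2 μg/mL doxycycline for 17 h at 37 °C, loaded 40 min with Calcium 5 dye plus probenecid in HBSS/HEPES pH 7.4. Agonist added as 11-point series (10 μM top); fluorescence read 1 min; pEC50 from four-parameter fit.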

Row | Compound | Ki [1] [nM] | EC50 [2] [nM]
1 | Cc1cn(C2CC2)c2cnn(CC(=O)N[C@@H](C)c3ccc(C(F)(F)F)cc3)c(=O)c12 [Example 144, (S)-2-(1-cyclopropyl-3-methyl-4-oxo-1,4-dihydro-5H-pyrrolo[2,3-d]pyridazin-5-yl)-N-(1-(4-(trifluoromethyl)phenyl)ethyl)acetamide] | 20 | 83.2
2 | COc1ccc([C@H](C)NC(=O)Cn2ncc3c(c(C)cn3C3CC3)c2=O)cc1 [Example 145, (S)-2-(1-cyclopropyl-3-methyl-4-oxo-1,4-dihydro-5H-pyrrolo[2,3-d]pyridazin-5-yl)-N-(1-(4-methoxyphenyl)ethyl)acetamide] | 89.1 | 29.5
3 | Cc1cn(C2CC2)c2cnn(CC(=O)N[C@@H](C)c3ccccc3)c(=O)c12 [Example 146, (S)-2-(1-cyclopropyl-3-methyl-4-oxo-1,4-dihydro-5H-pyrrolo[2,3-d]pyridazin-5-yl)-N-(1-phenylethyl)acetamide] | 34.7 | 51.3
4 | Cc1ccc([C@H](C)NC(=O)Cn2ncc3c(c(C)cn3C3CC3)c2=O)cc1 [Example 147, (S)-2-(1-cyclopropyl-3-methyl-4-oxo-1,4-dihydro-5H-pyrrolo[2,3-d]pyridazin-5-yl)-N-(1-(p-tolyl)ethyl)acetamide] | 7.59 | 33.1
5 | C[C@H](NC(=O)Cn1ncc2c(C3CC3)nn(C)c2c1=O)c1cccc(F)c1 [Example 148, (S)-2-(3-cyclopropyl-1-methyl-7-oxo-1,7-dihydro-6H-pyrazolo[3,4-d]pyridazin-6-yl)-N-(1-(3-fluorophenyl)ethyl)acetamide] | 589 | 20
6 | Cc1ccc([C@H](C)NC(=O)Cn2ncc3c(C4CC4)nn(C)c3c2=O)cc1 [Example 149, (S)-2-(3-cyclopropyl-1-methyl-7-oxo-1,7-dihydro-6H-pyrazolo[3,4-d]pyridazin-6-yl)-N-(1-(p-tolyl)ethyl)acetamide] | 219 | 26.3
7 | C[C@H](NC(=O)Cn1ncc2c(C3CC3)nn(C)c2c1=O)c1c(F)cccc1Cl [Example 150, (S)—N-(1-(2-chloro-6-fluorophenyl)ethyl)-2-(3-cyclopropyl-1-methyl-7-oxo-1,7-dihydro-6H-pyrazolo[3,4-d]pyridazin-6-yl)acetamide] | 77.6 | 47.9
8 | Cc1ccc([C@H](C)NC(=O)Cn2ncc3c(C4CC4)nn(C)c3c2=O)cc1F [Example 151, (S)-2-(3-cyclopropyl-1-methyl-7-oxo-1,7-dihydro-6H-pyrazolo[3,4-d]pyridazin-6-yl)-N-(1-(3-fluoro-4-methylphenyl)ethyl)acetamide] | 60.3 | 20.4
9 | Cc1ccc([C@H](C)NC(=O)Cn2ncc3c(C4CC4)nn(C)c3c2=O)c(F)c1 [Example 152, (S)-2-(3-cyclopropyl-1-methyl-7-oxo-1,7-dihydro-6H-pyrazolo[3,4-d]pyridazin-6-yl)-N-(1-(2-fluoro-4-methylphenyl)ethyl)acetamide] | 110 | 28.8
10 | C[C@H](NC(=O)Cn1ncc2ccn(C)c2c1=O)c1ccccc1 [Example 153, (S)-2-(1-methyl-7-oxo-1,7-dihydro-6H-pyrrolo[2,3-d]pyridazin-6-yl)-N-(1-phenylethyl)acetamide] | 1740 | 89.1
11 | Cc1nn(CC(=O)N[C@@H](C)c2cccc(F)c2)c(=O)c2c1c(C)nn2C [Example 154, (S)—N-(1-(3-fluorophenyl)ethyl)-2-(1,3,4-trimethyl-7-oxo-1,7-dihydro-6H-pyrazolo[3,4-d]pyridazin-6-yl)acetamide] | 490 | 21.4
12 | Cc1nn(C2CCC2)c2cnn(CC(=O)N[C@@H](C)c3ccc(C(F)(F)F)cc3)c(=O)c12 [Example 155, (S)-2-(1-cyclobutyl-3-methyl-4-oxo-1,4-dihydro-5H-pyrazolo[3,4-d]pyridazin-5-yl)-N-(1-(4-(trifluoromethyl)phenyl)ethyl)acetamide] | 178 | 87.1
13 | Cc1nn(C23CC(C2)C3)c2cnn(CC(=O)N[C@@H](C)c3ccc(C(F)(F)F)cc3)c(=O)c12 [Example 156, (S)-2-(1-(bicyclo[1.1.1]pentan-1-yl)-3-methyl-4-oxo-1,4-dihydro-5H-pyrazolo[3,4-d]pyridazin-5-yl)-N-(1-(4-(trifluoromethyl)phenyl)ethyl)acetamide] | 331 | 107
14 | Cc1nn(C(C)(C)C)c2cnn(CC(=O)N[C@@H](C)c3ccc(C(F)(F)F)cc3)c(=O)c12 [Example 157, (S)-2-(1-(tert-butyl)-3-methyl-4-oxo-1,4-dihydro-5H-pyrazolo[3,4-d]pyridazin-5-yl)-N-(1-(4-(trifluoromethyl)phenyl)ethyl)acetamide] | 234 | 126
15 | Cc1ccc([C@H](C)NC(=O)Cn2ncc3c(C4CC4)cn(C)c3c2=O)cc1 [Example 158, (S)-2-(3-cyclopropyl-1-methyl-7-oxo-1,7-dihydro-6H-pyrrolo[2,3-d]pyridazin-6-yl)-N-(1-(p-tolyl)ethyl)acetamide] | 47.9 | 57.5
16 | C[C@H](NC(=O)Cn1ncc2c(C3CC3)cn(C)c2c1=O)c1ccc(C(F)(F)F)cc1 [Example 159, (S)-2-(3-cyclopropyl-1-methyl-7-oxo-1,7-dihydro-6H-pyrrolo[2,3-d]pyridazin-6-yl)-N-(1-(4-(trifluoromethyl)phenyl)ethyl)acetamide] | 79.4 | 100

Results, then the compound that gave them:

Row | Ki [1] [nM] | EC50 [2] [nM] | Compound
17 | 30200 | 295 | Cc1nn(C2CC2)c2cnn(CC(=O)N[C@H](C)c3ccc(C(F)(F)F)cc3)c(=O)c12 [Example 160, (R)-2-(1-cyclopropyl-3-methyl-4-oxo-1,4-dihydro-5H-pyrazolo[3,4-d]pyridazin-5-yl)-N-(1-(4-(trifluoromethyl)phenyl)ethyl)acetamide]
18 | 105 | 8.51 | C[C@H](NC(=O)Cn1ncc2ccn(C)c2c1=O)c1ccc(Cl)cc1 [Example 161, (S)—N-(1-(4-chlorophenyl)ethyl)-2-(1-methyl-7-oxo-1,7-dihydro-6H-pyrrolo[2,3-d]pyridazin-6-yl)acetamide]
19 | 195 | 13.2 | Cc1ccc([C@H](C)NC(=O)Cn2ncc3ccn(C)c3c2=O)cc1 [Example 162, (S)-2-(1-methyl-7-oxo-1,7-dihydro-6H-pyrrolo[2,3-d]pyridazin-6-yl)-N-(1-(p-tolyl)ethyl)acetamide]
20 | 1780 | 15.5 | COc1ccc([C@H](C)NC(=O)Cn2ncc3ccn(C)c3c2=O)cc1 [Example 163, (S)—N-(1-(4-methoxyphenyl)ethyl)-2-(1-methyl-7-oxo-1,7-dihydro-6H-pyrrolo[2,3-d]pyridazin-6-yl)acetamide]
21 | 70.8 | 12.6 | Cc1ccc([C@H](C)NC(=O)Cn2ncc3ccn(C)c3c2=O)c(F)c1 [Example 165, (S)—N-(1-(2-fluoro-4-methylphenyl)ethyl)-2-(1-methyl-7-oxo-1,7-dihydro-6H-pyrrolo[2,3-d]pyridazin-6-yl)acetamide]
22 | 2340 | 53.7 | [2H]C([2H])([2H])c1ccc([C@H](C)NC(=O)Cn2ncc3c(cnn3C(C)C)c2=O)cc1 [Example 166, (S)-2-(1-isopropyl-4-oxo-1,4-dihydro-5H-pyrazolo[3,4-d]pyridazin-5-yl)-N-(1-(4-(methyl-d3)phenyl)ethyl)acetamide]
23 | 316 | 63.1 | [2H]C([2H])([2H])c1ccc([C@H](C)NC(=O)Cn2ncc3c(c(C)nn3C3CC3)c2=O)cc1 [Example 167, (S)-2-(1-cyclopropyl-3-methyl-4-oxo-1,4-dihydro-5H-pyrazolo[3,4-d]pyridazin-5-yl)-N-(1-(4-(methyl-d3)phenyl)ethyl)acetamide]
24 | 380 | 43.7 | [2H]C([2H])([2H])c1ccc([C@H](C)NC(=O)Cn2ncc3c(c(C)nn3C(C)C)c2=O)cc1 [Example 168, (S)-2-(1-isopropyl-3-methyl-4-oxo-1,4-dihydro-5H-pyrazolo[3,4-d]pyridazin-5-yl)-N-(1-(4-(Methyl-d3)phenyl)ethyl)acetamide]
25 | 75.9 | 51.3 | Cc1ccc([C@H](C)NC(=O)Cn2ncc3c(c(C(F)(F)F)nn3C)c2=O)cc1 [Example 169, (S)-2-(1-methyl-4-oxo-3-(trifluoromethyl)-1,4-dihydro-5H-pyrazolo[3,4-d]pyridazin-5-yl)-N-(1-(p-tolyl)ethyl)acetamide]
26 | 20.9 | 72.4 | Cc1ccc([C@H](C)NC(=O)Cn2ncc3c(c(C(F)(F)F)nn3C)c2=O)c(F)c1 [Example 170, (S)—N-(1-(2-fluoro-4-methylphenyl)ethyl)-2-(1-methyl-4-oxo-3-(trifluoromethyl)-1,4-dihydro-5H-pyrazolo[3,4-d]pyridazin-5-yl)acetamide]
